Assay results as given in PMC13489962, “Small-molecule modulation of β-arrestins” (Nature, 2026).

System: βarr1/2
Experiment: DSF with IP6 and/or Cmpd-5
Format: binding
Experimental: DSF assay was performed to identify β-arrestin-binding small molecules from the drug-like compound library (DDLC) described above. The screen was conducted using the StepOnePlus Real-Time PCR System (Applied Biosystems) with the fluorescent reporter probe SYPRO Orange (Thermo Fisher Scientific) in a 96-well format. Proteins were buffered in 20 mM HEPES (pH 7.5) with 100 mM NaCl. Small molecules (100 μM) were screened with either βARR1 or βARR2 (5 μM). DMSO was used as a vehicle control, and V2Rpp (50 μM) served as a positive control.
For DSF experiments involving the three positive control ligands (V2Rpp, IP6 and heparin, each at 50 μM) binding to β-arrestins, HEPES buffer was used as the vehicle control. Excitation and emission filters for SYPRO Orange were set to 475 nm and 580 nm, respectively. The temperature was increased by 0.5 °C every 30 s, from 25 °C to 99 °C, with fluorescence readings taken at each interval. Raw DSF data were analysed using Applied Biosystems Protein Thermal Shift Software. Fluorescence intensities were plotted as a function of temperature, and the midpoint of transition, or melting temperature (Tm), was calculated by plotting the first derivative of fluorescence emission as a function of temperature (dF/dT). […]

C=C1C(=O)[C@]23[C@H](O)[C@H]1CC[C@H]2[C@@]12CO[C@]3(O)[C@@H](O)[C@@H]1C(C)(C)CC[C@@H]2O [Cmpd-5, (1S,4aR,5S,6S,6aR,9S,11aS,11bS,14R)-1,5,6,14-tetrahydroxy−4,4-dimethyl-8-methylenedecahydro-1H-6,11b-(epoxymethano)-6a,9-methanocyclohepta[a]naphthalen-7(8H)-one]
effect on IP6-stabilized β-arrestin state by DSF: shifts βarr1/2 away from the IP6-stabilized active state
